Source: ChEMBL document CHEMBL4680283, “Evaluation of 1,1-cyclopropylidene as a thioether isostere in the 4-thio-thienopyrimidine (TTP) series of antimalarials” (Bioorg Med Chem, 2020)

System: Plasmodium falciparum
Test: Antimalarial activity against chloroquine-sensitive Plasmodium falciparum 3D7 MRA-102 infected in human erythrocytes assessed as reduction in parasite growth incubated for 72 hrs by SYBR green dye based fluorescence assay
Assay type: functional, organism-based
Settings: 3D7 MRA-102, Erythrocyte

| Compound | EC50 |
| --- | --- |
| Cc1csc(C(=O)c2ncnc3sccc23)n1 | 4.08 µM |
| Cc1csc(C2(c3ncnc4sccc34)CC2)n1 | > 23 µM |
| Cc1csc(C(C)(O)c2ncnc3sccc23)n1 (configuration not stated) | > 23 µM |
| Cn1c(Sc2ncnc3sccc23)nc2ccccc21 | 0.191 µM |
| CCOC(=O)/C=C(/c1nc(C)cs1)c1ncnc2sccc12 | 6.97 µM |
| Cc1csc(Sc2ncnc3sccc23)n1 | 0.037 µM |
| Cn1c(C2(c3ncnc4sccc34)CC2)nc2ccccc21 | > 23 µM |
